EP3283473B1, “GHRELIN O-ACYL TRANSFERASE INHIBITORS” (Eli Lilly and Company, priority 2015, dated 2016)

Biological target: T1, GOAT enzyme (Mus musculus, UniProt P0C7A3)
T1 construct: from tissue; host or cells: living male C57BL/6 mice (endogenous enzyme)
T1 sequence (P0C7A3 1-435): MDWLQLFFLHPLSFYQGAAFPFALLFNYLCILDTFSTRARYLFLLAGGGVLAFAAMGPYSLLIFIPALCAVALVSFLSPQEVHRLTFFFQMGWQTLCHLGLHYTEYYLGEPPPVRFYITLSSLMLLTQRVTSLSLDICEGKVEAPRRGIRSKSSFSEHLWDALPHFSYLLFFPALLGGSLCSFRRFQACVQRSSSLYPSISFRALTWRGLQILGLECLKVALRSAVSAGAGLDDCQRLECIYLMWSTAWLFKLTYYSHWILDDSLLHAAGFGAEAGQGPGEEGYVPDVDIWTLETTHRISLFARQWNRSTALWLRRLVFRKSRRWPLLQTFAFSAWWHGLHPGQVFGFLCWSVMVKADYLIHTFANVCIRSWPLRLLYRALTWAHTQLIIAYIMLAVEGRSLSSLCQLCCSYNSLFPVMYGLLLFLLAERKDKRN
Assay: In vivo dose dependent 3 day BID study for GOAT inhibitor (plasma AG and UAG by ELISA)
Parameters: species or system male C57BL/6 mice
Conditions: for decreases plasma AG / increases UAG: administration for 3 days; for decreases plasma AG / increases UAG / AG (% of control) / AG/total-ghrelin (% of vehicle control) / UAG (% of vehicle control): mice; for reduction in AG to total ghrelin ratio: compared to vehicle-treated control animals; for AG (% of control) / AG/total-ghrelin (% of vehicle control) / UAG (% of vehicle control): oral gavage BID, 3 days, plasma
Experimental: Comparing the change in the ratio of AG to total ghrelin in the compound treated group and that of the vehicle treated group reflects the degree of GOAT enzyme inhibition in vivo, due to the dynamic processing of UAG to AG by the GOAT enzyme. In the in vivo pharmacodynamic studies herein, the levels of AG and UAG in plasma and stomach in the vehicle and compound treated groups are measured by ELISA specifically to these two analytes. The total ghrelin level of each sample is computed as the sum of AG and UAG by these ELISA measurements. The ratio of AG to total ghrelin is defined by the level of AG in each sample divided by the level of total ghrelin in the same sample. The levels of AG, UAG and ratio of AG to total ghrelin in the vehicle treated group is computed and set as 100%. The relative change of these parameters in the compound treated group is then computed to determine the effectiveness of the test compound.
Purchase male C57BL/6 mice from Harlan (Indianapolis, IN) at 9 weeks of age. House the mice individually in a temperature-controlled (24 °C) facility with a 12 hours light/dark cycle (lights on 2200 h), and allow free access to a standard rodent chow (diet 2014, Harlan) and water. Typically, use the mice when they are 10-13 weeks of age at the time of the study. On day 0 of the experiment, randomize the mice into treatment groups (N=7/group) so each group has similar mean body weights. On day 1 and day 2, treat the animals with vehicle (1% hydroxyethylcellulose, 0.25% TWEEN™ 80, 0.05% antifoam) or test compound prepared in the vehicle as suspension at various dosages by oral gavage at 7 am and 7 pm. On day 3, fast the animals, move them into clean cages and dose with vehicle or the test compound again at 8 am by oral gavage. That same day at 1 pm, sacrifice the animals by decapitation to collect blood. For details of blood collection and plasma treatments see Blood collection and Extraction of Ghrelin from Plasma section below.
Collect approximately 600 µL blood into a pre-weighed EDTA tube containing 600 µL (defined as Vpreservative) freshly-prepared preservative (4 mM PEFABLOC® [4-(2-aminoethyl) benzenesulfonyl fluoride hydrochloride], 72 mM NaCl, 58 mM NaF, 0.032 N hydrochloric acid, pH 3.0) and mix immediately. Weigh the tube again and keep on ice. To accurately determine the exact blood volume of each sample using this blood collection procedure, the weight of the blood for each mouse is computed using the following equation: Weight of Blood = (Weight of the tube containing Blood + preservative)−; (Weight of the tube containing preservative) [formula] Blood volume(Vblood) = (Weight of blood)/1.06 [formula]
Within 15 minutes after the blood collection, samples are centrifuged at 5000 rpm at 4 °C for 8 min. Remove plasma (650 µL) to a 5 mL glass tube containing 1 N hydrochloric acid (65µL), mix and keep on ice.
AG and UAG are extracted from plasma using SEP-PAK®_C18 column to remove interference prior to performing the ELISA. The solid phase extraction of AG and UAG peptides by SEP-PAK®_C18 columns can be performed on a vacuum manifold (Waters Corp) or using a peristaltic pump. The sample SEP-PAK®_column extraction procedure is independently applied to the plasma sample obtained from each individual mouse. The general extraction protocol is described as follows.
All solutions used for the entire protocol of the SEP-PAK® column extraction should be at ice cold condition. Wet SEP-PAK®_columns (WAT054960, Waters Corp, Milford MA) with 99.9% ACN/0.1% TFA (1 mL of solution of 100 mL ACN/0.1 mL TFA). […] Once liquid is removed from the column, stop the pressure. Equilibrate the columns with 3% ACN/0.1% TFA (1 mL of 97 mL water, 3 mL ACN, 0.1 mL TFA). […] Dilute approximately 650 µL acidified plasma (defined as Vplasma added to column) to 1.4 mL ice cold 0.1% TFA. Load all diluted acidified plasma from the previous step onto the columns. […]

- decreases plasma AG (0.1 mg/kg): 40%
- increases UAG (0.1 mg/kg): 2.10 fold
- reduction in AG to total ghrelin ratio (0.1 mg/kg): 57%
- AG (% of control) (0.1 mg/kg): 60 ± 8 (n=7) % of control
- AG/total-ghrelin (% of vehicle control) (0.1 mg/kg): 43 ± 3 (n=7) % of vehicle control
- UAG (% of vehicle control) (0.1 mg/kg): 210 ± 43 (n=7) % of vehicle control
- decreases plasma AG (0.3 mg/kg): 60%
- increases UAG (0.3 mg/kg): 2.22 fold
- reduction in AG to total ghrelin ratio (0.3 mg/kg): 62%
- AG (% of control) (0.3 mg/kg): 40 ± 10 (n=7) % of control
- AG/total-ghrelin (% of vehicle control) (0.3 mg/kg): 28 ± 1 (n=7) % of vehicle control
- UAG (% of vehicle control) (0.3 mg/kg): 222 ± 54 (n=7) % of vehicle control
- decreases plasma AG (1 mg/kg): 56%
- increases UAG (1 mg/kg): 3.57 fold
- reduction in AG to total ghrelin ratio (1 mg/kg): 79%
- AG (% of control) (1 mg/kg): 44 ± 6 (n=14) % of control
- AG/total-ghrelin (% of vehicle control) (1 mg/kg): 21 ± 1 (n=14) % of vehicle control
- UAG (% of vehicle control) (1 mg/kg): 357 ± 30 (n=14) % of vehicle control
- decreases plasma AG (3 mg/kg): 63%
- increases UAG (3 mg/kg): 3.49 fold
- reduction in AG to total ghrelin ratio (3 mg/kg): 82%
- AG (% of control) (3 mg/kg): 37 ± 9.6 (n=14) % of control
- AG/total-ghrelin (% of vehicle control) (3 mg/kg): 18 ± 5 (n=14) % of vehicle control
- UAG (% of vehicle control) (3 mg/kg): 349 ± 41 (n=14) % of vehicle control
- decreases plasma AG (10 mg/kg): 63%
- increases UAG (10 mg/kg): 3.78 fold
- reduction in AG to total ghrelin ratio (10 mg/kg): 82%
- AG (% of control) (10 mg/kg): 37 ± 9.9 (n=7) % of control
- AG/total-ghrelin (% of vehicle control) (10 mg/kg): 18 ± 3 (n=7) % of vehicle control
- UAG (% of vehicle control) (10 mg/kg): 378 ± 59 (n=7) % of vehicle control
Structure (SMILES): Cc1nc(C(F)(F)F)nc(N)c1CCC1CCN(C(=O)[C@H](C)NC(=O)c2ccnn2C)CC1 [Example 2, N-[(1S)-2-[4-[2-[4-Amino-6-methyl-2-(trifluoromethyl)pyrimidin-5-yl]ethyl]-1-piperidyl]-1-methyl-2-oxo-ethyl]-2-methyl-pyrazole-3-carboxamide]
